Source: patent US8791118B2, “Pyridopyrazines as highly selective ras-Raf-Mek-Erk signal transduction pathway inhibitors” (Aeterna Zentaris GmbH, priority 2011, dated 2014)

| Structure (SMILES) | melting point |
| --- | --- |
| CCNC(=O)Oc1ccc(-c2cnc3ccc(NC(=O)NCCCCc4ccccc4)nc3n2)cc1 | 198 °C |
| Cl.O=C(NCCCCc1ccccc1)Nc1ccc2ncc(N3CCNCC3)nc2n1 | 209 to 211 °C |
| Cc1n[nH]c(C)c1-c1cnc2ccc(NC(=O)NCCCCc3ccccc3)nc2n1 [Compound 91, 1-[3-(3,5-Dimethyl-1H-pyrazol-4-yl)-pyrido[2,3-b]pyrazin-6-yl]-3-(4-phenyl-butyl)-urea] | 299 to 300 °C |
| CN1CCN(c2cnc3ccc(NC(=O)NCCCCc4ccccc4)nc3n2)CC1 [Compound 93, 1-[3-(4-Methyl-piperazin-1-yl)-pyrido[2,3-b]pyrazin-6-yl]-3-(4-phenyl-butyl)-urea] | 181 to 183 °C |
| O=C(NCCCCc1ccccc1)Nc1ccc2ncc(-c3ccc4nc[nH]c4c3)nc2n1 [Compound 94, 1-[3-(3H-Benzoimidazol-5-yl)-pyrido[2,3-b]pyrazin-6-yl]-3-(4-phenyl-butyl)-urea] | 226 °C |
| Nc1cccc(-c2cnc3ccc(NC(=O)NCCCCc4ccccc4)nc3n2)c1 [Compound 95, 1-[3-(3-Amino-phenyl)-pyrido[2,3-b]pyrazin-6-yl]-3-(4-phenyl-butyl)-urea] | 200 to 203 °C |
| Cc1ccc(CCCCNC(=O)Nc2ccc3ncc(-c4cnn(C)c4)nc3n2)cc1 [Compound 97, 1-[3-(1-Methyl-1H-pyrazol-4-yl)-pyrido[2,3-b]pyrazin-6-yl]-3-(4-p-tolyl-butyl)-urea] | 202 to 204 °C |
| Cn1cc(-c2cnc3ccc(NC(=O)NCCCCc4ccc(F)cc4)nc3n2)cn1 [Compound 99, 1-[4-(4-Fluoro-phenyl)-butyl]-3-[3-(1-methyl-1H-pyrazol-4-yl)-pyrido[2,3-b]pyrazin-6-yl]-urea] | 197 to 200 °C |
| CCCn1cc(-c2cnc3ccc(NC(=O)NCCCC(C)(C)c4ccccc4)nc3n2)cn1 [Compound 100, 1-(4-Methyl-4-phenyl-pentyl)-3-[3-(1-propyl-1H-pyrazol-4-yl)-pyrido[2,3-b]pyrazin-6-yl]-urea] | 205 to 207 °C |
| O=C(NCCCCc1ccccc1)Nc1ccc2ncc(-c3cc(Cl)c(O)c(Cl)c3)nc2n1 [Compound 103, 1-[3-(3,5-Dichloro-4-hydroxy-phenyl)-pyrido[2,3-b]pyrazin-6-yl]-3-(4-phenyl-butyl)-urea] | 271 to 273 °C |
| O=C(NCCCCc1ccccc1)Nc1ccc2ncc(-c3cccc(O)c3)nc2n1 [Compound 104, 1-[3-(3-Hydroxy-phenyl)-pyrido[2,3-b]pyrazin-6-yl]-3-(4-phenyl-butyl)-urea] | 226 to 228 °C |
| CC(=O)Oc1ccc(-c2cnc3ccc(NC(=O)NCCCCc4ccccc4)nc3n2)cc1 [Compound 107, Acetic acid 4-{6-[3-(4-phenyl-butyl)-ureido]-pyrido[2,3-b]pyrazin-3-yl}-phenyl ester] | 220 °C |
| Cn1cc(-c2cnc3ccc(NC(=O)NCC4CCc5ccccc5C4)nc3n2)cn1 (stereo not shown) [Compound 111, 1-[3-(1-Methyl-1H-pyrazol-4-yl)-pyrido[2,3-b]pyrazin-6-yl]-3-(1,2,3,4-tetrahydro-naphthalen-2-ylmethyl)-urea] | 230 to 233 °C |
| Cc1c(-c2cnc3ccc(NC(=O)NCCCCc4ccccc4)nc3n2)cnn1-c1ccccc1 [Compound 113, 1-[3-(5-Methyl-1-phenyl-1H-pyrazol-4-yl)-pyrido[2,3-b]pyrazin-6-yl]-3-(4-phenyl-butyl)-urea] | 224 to 226 °C |
| COc1ccc(CCCCNC(=O)Nc2ccc3ncc(-c4cnn(C)c4)nc3n2)cc1 [Compound 115, 1-[4-(4-Methoxy-phenyl)-butyl]-3-[3-(1-methyl-1H-pyrazol-4-yl)-pyrido[2,3-b]pyrazin-6-yl]-urea] | 195 to 196 °C |
| CCCNc1cnc2ccc(NC(=O)NCCCCc3ccccc3)nc2n1 [Compound 119, 1-(4-Phenyl-butyl)-3-(3-propylamino-pyrido[2,3-b]pyrazin-6-yl)-urea] | 118 to 120 °C |
| C[C@H](CCCc1ccccc1)NC(=O)Nc1ccc2ncc(-c3ccc(O)c(Cl)c3)nc2n1 [Compound 129, 1-[3-(3-Chloro-4-hydroxy-phenyl)-pyrido[2,3-b]pyrazin-6-yl]-3-((R)-1-methyl-4-phenyl-butyl)-urea] | 225 to 228 °C |
| CCCn1cc(-c2cnc3ccc(NC(=O)NCCCC(=O)c4ccccc4)nc3n2)cn1 [Compound 131, 1-(4-Oxo-4-phenyl-butyl)-3-[3-(1-propyl-1H-pyrazol-4-yl)-pyrido[2,3-b]pyrazin-6-yl]-urea] | 210 to 211 °C |
| CCOC(=O)Oc1ccc(-c2cnc3ccc(NC(=O)NCCCCc4ccccc4)nc3n2)cc1 [Compound 132, Carbonic acid ethyl ester 4-{6-[3-(4-phenyl-butyl)-ureido]-pyrido[2,3-b]pyrazin-3-yl}-phenyl ester] | 212 °C |
| CC(C)(C)C(=O)Oc1ccc(-c2cnc3ccc(NC(=O)NCCCCc4ccccc4)nc3n2)cc1 [Compound 135, 2,2-Dimethyl-propionic acid 4-{6-[3-(4-phenyl-butyl)-ureido]-pyrido[2,3-b]pyrazin-3-yl}-phenyl ester] | 225 °C |
| CSc1ccc(-c2cnc3ccc(NC(=O)NCCCCc4ccccc4)nc3n2)cc1 [Compound 137, 1-[3-(4-Methylsulfanyl-phenyl)-pyrido[2,3-b]pyrazin-6-yl]-3-(4-phenyl-butyl)-urea] | 227 to 230 °C |
| N#Cc1cccc(-c2cnc3ccc(NC(=O)NCCCCc4ccccc4)nc3n2)c1 [Compound 138, 1-[3-(3-Cyano-phenyl)-pyrido[2,3-b]pyrazin-6-yl]-3-(4-phenyl-butyl)-urea] | 237 to 240 °C |
| COc1ccc(-c2cnc3ccc(NC(=O)NCCCCc4ccccc4)nc3n2)cc1S(=O)(=O)N1CCOCC1 [Compound 145, 1-{3-[4-Methoxy-3-(morpholine-4-sulfonyl)-phenyl]-pyrido[2,3-b]pyrazin-6-yl}-3-(4-phenyl-butyl)-urea] | 256 to 258 °C |
| C[C@H](CCCc1ccccc1)NC(=O)Nc1ccc2ncc(-c3ccc(O)cc3)nc2n1 [Compound 147, 1-[3-(4-Hydroxy-phenyl)-pyrido[2,3-b]pyrazin-6-yl]-3-((R)-1-methyl-4-phenyl-butyl)-urea] | 226 to 229 °C |
| COc1ccc(-c2cnc3ccc(NC(=O)N[C@H](C)CCCc4ccccc4)nc3n2)cc1O [Compound 148, 1-[3-(3-Hydroxy-4-methoxy-phenyl)-pyrido[2,3-b]pyrazin-6-yl]-3-((R)-1-methyl-4-phenyl-butyl)-urea] | 196 to 198 °C |

Further lines, results first:

| melting point | Structure (SMILES) |
| --- | --- |
| 135 to 138 °C | COc1ccc(-c2cnc3ccc(NC(=O)NCCCCc4ccccc4)nc3n2)c(OC)c1OC [Compound 92, 1-(4-Phenyl-butyl)-3-[3-(2,3,4-trimethoxy-phenyl)-pyrido[2,3-b]pyrazin-6-yl]-urea] |
| 195 to 197 °C | COc1ccc(-c2cnc3ccc(NC(=O)N[C@H](C)CCCc4ccccc4)nc3n2)cc1OC [Compound 98, 1-[3-(3,4-Dimethoxy-phenyl)-pyrido[2,3-b]pyrazin-6-yl]-3-((R)-1-methyl-4-phenyl-butyl)-urea] |
| 173 to 175 °C | CCOc1ccccc1-c1cnc2ccc(NC(=O)NCCCCc3ccccc3)nc2n1 [Compound 102, 1-[3-(2-Ethoxy-phenyl)-pyrido[2,3-b]pyrazin-6-yl]-3-(4-phenyl-butyl)-urea] |
| 280 °C (dec.) | O=C(NCCCCc1ccccc1)Nc1ccc2ncc(-c3ccn[nH]3)nc2n1 [Compound 105, 1-(4-Phenyl-butyl)-3-[3-(2H-pyrazol-3-yl)-pyrido[2,3-b]pyrazin-6-yl]-urea] |
| 207 to 210 °C | Cc1cc(O)ccc1-c1cnc2ccc(NC(=O)NCCCCc3ccccc3)nc2n1 [Compound 106, 1-[3-(4-Hydroxy-2-methyl-phenyl)-pyrido[2,3-b]pyrazin-6-yl]-3-(4-phenyl-butyl)-urea] |
| 238 to 241 °C | O=C(NCCCCc1ccccc1)Nc1ccc2ncc(-c3ccc(O)c(Br)c3)nc2n1 [Compound 109, 1-[3-(3-Bromo-4-hydroxy-phenyl)-pyrido[2,3-b]pyrazin-6-yl]-3-(4-phenyl-butyl)-urea] |
| 200 to 203 °C | COc1ccc(-c2cnc3ccc(NC(=O)NCCCCc4ccccc4)nc3n2)cc1 [Compound 118, 1-[3-(4-Methoxy-phenyl)-pyrido[2,3-b]pyrazin-6-yl]-3-(4-phenyl-butyl)-urea] |
| 158 to 160 °C | Cc1ccccc1-c1cnc2ccc(NC(=O)NCCCCc3ccccc3)nc2n1 [Compound 120, 1-(4-Phenyl-butyl)-3-(3-o-tolyl-pyrido[2,3-b]pyrazin-6-yl)-urea] |
| 173 to 177 °C | COc1ccccc1-c1cnc2ccc(NC(=O)NCCCCc3ccccc3)nc2n1 [Compound 124, 1-[3-(2-Methoxy-phenyl)-pyrido[2,3-b]pyrazin-6-yl]-3-(4-phenyl-butyl)-urea] |
| 190 to 191 °C | Nc1ccccc1-c1cnc2ccc(NC(=O)NCCCCc3ccccc3)nc2n1 [Compound 130, 1-[3-(2-Amino-phenyl)-pyrido[2,3-b]pyrazin-6-yl]-3-(4-phenyl-butyl)-urea] |
| 247 to 248 °C | O=C(NCCCCc1ccccc1)Nc1ccc2ncc(-c3ccccc3O)nc2n1 [Compound 133, 1-[3-(2-Hydroxy-phenyl)-pyrido[2,3-b]pyrazin-6-yl]-3-(4-phenyl-butyl)-urea] |
| 223 to 225 °C | COc1cc(Nc2cnc3ccc(NC(=O)NCCCCc4ccccc4)nc3n2)cc(OC)c1OC [Compound 139, 1-(4-Phenyl-butyl)-3-[3-(3,4,5-trimethoxy-phenylamino)-pyrido[2,3-b]pyrazin-6-yl]-urea] |
| 136 to 139 °C | COc1cc(Nc2cnc3ccc(NC(=O)NCCCCc4ccccc4)nc3n2)cc(O)c1OC [Compound 141, 1-[3-(3-Hydroxy-4,5-dimethoxy-phenylamino)-pyrido[2,3-b]pyrazin-6-yl]-3-(4-phenyl-butyl)-urea] |
| 248 to 249 °C | O=C(NCCCCc1ccccc1)Nc1ccc2ncc(-c3ccc(F)cc3O)nc2n1 [Compound 144, 1-[3-(4-Fluoro-2-hydroxy-phenyl)-pyrido[2,3-b]pyrazin-6-yl]-3-(4-phenyl-butyl)-urea] |
| 194 to 197 °C | COc1ncccc1-c1cnc2ccc(NC(=O)NCCCCc3ccccc3)nc2n1 [Compound 146, 1-[3-(2-Methoxy-pyridin-3-yl)-pyrido[2,3-b]pyrazin-6-yl]-3-(4-phenyl-butyl)-urea] |
